Assay results from US20060210479A1 (Dow Global Technologies Inc., priority 2004, published 2006).
“Also recorded” adds a separate entry of the source. Marks after values point to notes of the source that are not given here.

Key:
Caco-2 cells [1] = assay: Permeability: detection of chelate compounds in the cytoplasm; assay type: cell-based, human; set-up: key to Permeability Caco-2: Absence = 0; presence = +; details: for Permeability Caco-2: 50 μM, 90 minutes at 37 °C, detection in the cytoplasm; for detection within the cytoplasm: carcinoma cell line Caco-2
Experimental: (§1) Cell cultures. LNCaP cell line is a human prostate carcinoma. Cells were grown in RPMI 1640 Medium supplemented 10% FBS, 2 mM L-glutamine, glucose (2 g/L) augmented with gentamicin (50 μg/mL), penicillin/streptomycin (100 IU/mL/100 μg/mL) and amphotericin B (2.5 μg/mL). Caco-2 cell line is a human colorectal carcinoma. These cells were grown in Eagle's Minimum Essential Medium supplemented with 20% FBS, Earle's BSS, 2 mM L-glutamine, 1.0 mM sodium pyruvate, 0.1 mM nonessential amino acids augmented with gentamicin (50 μg/mL), penicillin/streptomycin (100 IU/mL/100 μg/mL), and amphotericin B (2.5 μg/mL). The human kidney transformed cells HEK293 were grown in Eagle's Minimum Essential Medium (EMEM) supplemented with 10% (v/v) heat-inactivated fetal bovine serum, sodium pyruvate, nonessential amino acids and antibiotics in a humidified 5% CO2 atmosphere at 37° C. Medium and supplements were purchased from Gibco BRL (Grand Island, N.Y.) and all cell lines were obtained from ATCC.
(§2) Detection of chelant compounds for the determination of permeability. Cells were grown to confluence in T-150 flasks (about 2×10^7 cells). Before treating with chelate compounds, cells were rinsed twice with warm 10 mM HEPES (Gibco BRL, Grand Island N.Y.), removed from the flask, and transferred to a 50-mL conical tube and centrifuged (400×g) for 5 minutes. The resulting cells were treated with individual chelate compounds with 50 μM of chelate compounds in 10 mM HEPES, pH 7.4, 5 mM KCl, 150 mM NaCl, 0.7 mM NaH2PO4 for 90 minutes at 37° C. After treatment, cells were pelleted by centrifugation, the cytoplasm was extracted by Mem-PER Eukaryotic Membrane Protein Extraction Reagent Kit as described by manufacturers (Pierce biotechnology, Rockford, Ill.) and the resulting solution was analyzed by a combination of HPLC and mass spectrometry (Table 8).

HEK293 cells [2] = assay: as above; assay type: cell-based, human; set-up: key: Absence = 0; presence = +; details: 50 μM, 90 minutes at 37 °C
Experimental: as §1, §2

Caco-2 cells [3] = assay: Adsorption of chelate compounds to cells (HPLC and mass spectrometry); assay type: cell-based, human; details: for Adsorption Caco-2: 50 µM chelate compound, 0, 30 and 90 minutes at 37 °C, % adsorbed relative to time zero
Source text: (§3) As a prerequisite for the understanding of the functional attributes of Tb-PCTMB and Eu-QCTME for diagnostics and therapeutic purposes, and for other uses, it is useful to synthesize a series of chelate compounds that contain structural elements of both PCTMB and QCTME and test these compounds for adsorption and permeability to different cell lines. The first approach was to test for adsorption to a normal cell line (HEK293) and to two epithelial cancer cell lines (LNCaP and Caco-2). The second approach, described in this example, involves testing only the compounds that adsorbed in the cancer cell lines and not in the normal cell lines for permeability. Adsorption and permeability of the compounds to epithelial cancer cell lines and a normal cell line was measured through the detection of the compound by HPLC and mass spectrometry.
as §1
(§4) Detection of chelate compounds for the determination of adsorption. Cells were grown to confluence in T-150 flasks (about 2×10^7 cells). Before treating with chelate compounds, cells were rinsed twice with warm 10 mM HEPES (Gibco BRL, Grand Island N.Y.), removed from the flask, and transferred to a 50-mL conical tube and centrifuged (400×g) for 5 minutes. The resulting cells were treated with individual chelate compounds with 50 µM of chelate compounds in 10 mM HEPES, pH 7.4, 5 mM KCl, 150 mM NaCl, 0.7 mM NaH2PO4 for 0, 30, and 90 minutes at 37 ° C. After treatment, cells were pelleted by centrifugation and the resulting solution was analyzed by a combination of HPLC and mass spectrometry.

LNCaP cells [4] = assay: as above; assay type: cell-based, human; details: for Adsorption LNCaP: 50 µM chelate compound, 0, 30 and 90 minutes at 37 °C, % adsorbed relative to time zero
Source text: as §3, §1, §4

HEK293 cells [5] = assay: as above; assay type: cell-based, human; details: for Adsorption HEK293: 50 µM chelate compound, 0, 30 and 90 minutes at 37 °C, % adsorbed relative to time zero
Source text: as §3, §1, §4

LNCaP cells [6] = assay: Permeability: detection of chelate compounds in the cytoplasm; assay type: cell-based, human; set-up: key to Permeability LNCaP: Absence = 0; presence = +; details: for Permeability LNCaP: 50 μM, 90 minutes at 37 °C, detection in the cytoplasm; for detection within the cytoplasm: carcinoma cell line LNCaP
Experimental: as §1, §2

[7] = Solubility of chelate compounds; details: <5% methanol, ethanol, or DMSO
Keratin 18 = target: T1, Keratin 18 (Homo sapiens, UniProt P05783); assay: Elution and identification of target-chelate compound associations; assay type: binding
T1 construct: Caco-2 and LNCaP cell lines were lysed by sonication or by lysis in hypotonic buffer; endogenous in cells; host or cells: Caco-2 and LNCaP
T1 sequence (P05783 2-430 limits assumed): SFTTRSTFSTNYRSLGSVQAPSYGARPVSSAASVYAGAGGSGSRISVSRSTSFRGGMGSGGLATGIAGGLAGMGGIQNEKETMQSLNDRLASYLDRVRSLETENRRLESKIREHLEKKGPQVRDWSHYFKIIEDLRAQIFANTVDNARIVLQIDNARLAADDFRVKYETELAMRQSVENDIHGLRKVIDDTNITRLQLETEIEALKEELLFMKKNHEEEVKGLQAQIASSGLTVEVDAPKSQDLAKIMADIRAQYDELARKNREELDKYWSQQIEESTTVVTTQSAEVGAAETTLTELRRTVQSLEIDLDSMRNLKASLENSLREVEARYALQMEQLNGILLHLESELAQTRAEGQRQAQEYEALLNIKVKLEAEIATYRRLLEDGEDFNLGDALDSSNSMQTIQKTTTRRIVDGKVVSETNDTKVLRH
T1 sequence (P05787 1-483 partner): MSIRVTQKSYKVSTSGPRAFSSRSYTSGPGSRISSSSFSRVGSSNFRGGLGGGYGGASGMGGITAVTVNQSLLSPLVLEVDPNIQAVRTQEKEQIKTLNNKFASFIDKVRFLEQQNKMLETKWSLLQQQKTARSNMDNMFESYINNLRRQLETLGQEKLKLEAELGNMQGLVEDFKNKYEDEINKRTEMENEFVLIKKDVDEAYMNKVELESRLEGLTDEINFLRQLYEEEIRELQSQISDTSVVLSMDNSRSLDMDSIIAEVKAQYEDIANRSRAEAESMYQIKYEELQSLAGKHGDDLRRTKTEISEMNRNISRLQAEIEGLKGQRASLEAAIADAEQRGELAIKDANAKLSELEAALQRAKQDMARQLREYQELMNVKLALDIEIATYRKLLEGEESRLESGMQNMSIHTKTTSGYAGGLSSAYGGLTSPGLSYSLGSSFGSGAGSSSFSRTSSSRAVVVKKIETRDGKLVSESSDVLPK
Experimental: (§5) Identification of novel target-chelate compound associations—Caco-2 and LNCaP cell lines were lysed by sonication or by lysis in hypotonic buffer. Soluble proteins were enriched and captured on an affinity support column. […] Proteins were eluted by adding different chelate compounds that compete for the bound ligand or change the steric structure of a given protein(s). Eluted samples were analyzed by high resolution SDS-PAGE. The protein-chelate compound associations were further analyzed to identify the different proteins by excising the corresponding protein bands from the gel, which was then treated with trypsin and purified. […]

Cytokeratin 8 = target: T2, Cytokeratin 8 (Homo sapiens, UniProt P05787); assay: as above; assay type: binding
T2 construct: Caco-2 and LNCaP cell lines were lysed by sonication or by lysis in hypotonic buffer; endogenous in cells; host or cells: Caco-2 and LNCaP
T2 sequence (P05787 1-483): T1 sequence (P05787 1-483 partner)
T2 sequence (P05783 2-430 partner limits assumed): T1 sequence (P05783 2-430 limits assumed)
Experimental: as §5

BiP = target: T3, BiP (Homo sapiens, UniProt P11021); assay: as above; assay type: binding
T3 construct: Caco-2 and LNCaP cell lines were lysed by sonication or by lysis in hypotonic buffer; endogenous in cells; host or cells: Caco-2 and LNCaP
Experimental: as §5

Amphiphysin I = target: T4, Amphiphysin I (Homo sapiens, UniProt P49418); assay: as above; assay type: binding
T4 construct: Caco-2 and LNCaP cell lines were lysed by sonication or by lysis in hypotonic buffer; endogenous in cells; host or cells: Caco-2 and LNCaP
Experimental: as §5

T3 sequence (P11021 19-654): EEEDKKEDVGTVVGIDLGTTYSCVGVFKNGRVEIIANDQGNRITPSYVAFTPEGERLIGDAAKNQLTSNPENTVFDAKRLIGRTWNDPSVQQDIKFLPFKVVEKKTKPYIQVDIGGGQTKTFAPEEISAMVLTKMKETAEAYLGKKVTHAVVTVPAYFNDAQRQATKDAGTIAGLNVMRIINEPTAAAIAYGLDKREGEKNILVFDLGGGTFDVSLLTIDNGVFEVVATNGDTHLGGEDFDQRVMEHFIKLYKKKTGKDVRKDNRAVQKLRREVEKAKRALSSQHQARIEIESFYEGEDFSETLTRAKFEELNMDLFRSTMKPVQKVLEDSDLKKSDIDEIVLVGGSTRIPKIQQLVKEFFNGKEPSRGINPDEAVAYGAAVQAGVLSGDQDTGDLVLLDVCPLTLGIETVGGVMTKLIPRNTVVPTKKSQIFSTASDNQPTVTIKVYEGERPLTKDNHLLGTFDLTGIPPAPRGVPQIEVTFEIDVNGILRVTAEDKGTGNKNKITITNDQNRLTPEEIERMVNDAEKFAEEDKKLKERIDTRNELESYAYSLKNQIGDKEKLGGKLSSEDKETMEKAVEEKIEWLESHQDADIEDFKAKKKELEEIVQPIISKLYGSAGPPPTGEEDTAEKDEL
T4 sequence (P49418 1-653 isoform P49418-2): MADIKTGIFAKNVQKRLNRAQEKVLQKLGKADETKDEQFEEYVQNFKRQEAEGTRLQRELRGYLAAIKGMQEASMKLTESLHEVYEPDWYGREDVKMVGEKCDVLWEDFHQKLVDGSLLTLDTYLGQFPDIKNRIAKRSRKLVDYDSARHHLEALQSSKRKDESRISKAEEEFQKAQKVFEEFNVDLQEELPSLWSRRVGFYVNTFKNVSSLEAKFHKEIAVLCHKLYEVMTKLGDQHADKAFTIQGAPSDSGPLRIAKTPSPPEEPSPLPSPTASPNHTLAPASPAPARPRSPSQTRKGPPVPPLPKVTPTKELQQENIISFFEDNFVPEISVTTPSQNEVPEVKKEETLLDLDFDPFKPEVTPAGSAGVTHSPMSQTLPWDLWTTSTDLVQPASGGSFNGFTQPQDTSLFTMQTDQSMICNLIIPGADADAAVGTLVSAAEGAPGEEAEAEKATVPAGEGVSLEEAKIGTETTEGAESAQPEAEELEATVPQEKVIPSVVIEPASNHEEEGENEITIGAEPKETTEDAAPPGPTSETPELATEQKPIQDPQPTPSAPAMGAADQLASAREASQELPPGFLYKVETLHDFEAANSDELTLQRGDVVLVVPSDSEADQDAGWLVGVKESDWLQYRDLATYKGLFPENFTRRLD

| Compound | Permeability Caco-2 (Caco-2 cells [1]) | detection within the cytoplasm (Caco-2 cells [1]) | Permeability HEK293 (HEK293 cells [2]) | adsorption in carcinoma cell line Caco-2 (Caco-2 cells [3]) | Adsorption Caco-2 (Caco-2 cells [3]) | adsorption in carcinoma cell line LNCaP (LNCaP cells [4]) | Adsorption LNCaP (LNCaP cells [4]) | adsorption in normal cells (HEK293) (HEK293 cells [5]) | Adsorption HEK293 (HEK293 cells [5]) | Permeability LNCaP (LNCaP cells [6]) | detection within the cytoplasm (LNCaP cells [6]) | solubility [7] [mM] | binding to keratin 18 (Seq. ID No. 9) (Keratin 18) | binding to cytokeratin 8 (Seq. ID No. 10) (Cytokeratin 8) | binding to BiP (Seq. ID No. 5) (BiP) | binding to amphiphysin I (Seq. ID No. 7) (Amphiphysin I) |
| --- | --- | --- | --- | --- | --- | --- | --- | --- | --- | --- | --- | --- | --- | --- | --- | --- |
| CCCCOP(=O)(O)Cc1c(C)c(CP(=O)(O)OCCCC)c(C)c(CP(=O)(O)OCCCC)c1C [Compound 12, [3,5-Bis-(Butoxy-hydroxy-phosphorylmethyl)-2,4,6-trimethyl-benzyl]-phosphonic acid monobutyl ester] | + | detected within the cytoplasm | 0 | adsorbed | ++++ (++++ = >60%) | adsorbed | +++ (+++ = 41-60%) | not adsorbed | 0 (0 = 0-10%) | + | detected within the cytoplasm | > 10 | found to bind; also recorded: bind specifically | found to bind; also recorded: bind specifically | – | – |
| CCOP(=O)(O)Cc1cc(CP(=O)(O)OCC)cc(CP(=O)(O)OCC)c1 [Compound 8, [3,5-Bis-(Ethoxy-hydroxy-phosphorylmethyl)-benzyl]-phosphonic acid monoethyl ester] | + | detected within the cytoplasm | 0 | adsorbed | +++ (+++ = 41-60%) | adsorbed | +++ (+++ = 41-60%) | not adsorbed | 0 (0 = 0-10%) | + | detected within the cytoplasm | > 10 | found to bind; also recorded: bind specifically | found to bind; also recorded: bind specifically | – | – |
| CCOP(=O)(O)Cc1ccc2cc(C)ccc2n1 [Compound 2] | + | detected within the cytoplasm | 0^b | adsorbed | ++ (++ = 21-40%) | adsorbed | ++ (++ = 21-40%) | not adsorbed | 0 (0 = 0-10%) | + | detected within the cytoplasm | > 10 | – | – | found to bind; also recorded: bind specifically | found to bind; also recorded: bind specifically |
| CCCCOP(=O)(O)Cc1cc(CP(=O)(O)OCCCC)cc(CP(=O)(O)OCCCC)c1 [Compound 9, [3,5-Bis-(Butoxy-hydroxy-phosphorylmethyl)-benzyl]-phosphonic acid monobutyl ester] | + | detected within the cytoplasm | 0 | adsorbed | ++ (++ = 21-40%) | adsorbed | ++ (++ = 21-40%) | not adsorbed | 0 (0 = 0-10%) | + | detected within the cytoplasm | > 10 | found to bind; also recorded: bind specifically | found to bind; also recorded: bind specifically | – | – |
| CCCCOP(=O)(O)Cc1ccc2cc(C)ccc2n1 [Compound 3] | + | detected within the cytoplasm | 0 | adsorbed | ++ (++ = 21-40%) | adsorbed | ++++ (++++ = >60%) | not adsorbed | 0 (0 = 0-10%) | + | detected within the cytoplasm | > 10 | – | – | found to bind; also recorded: bind specifically | found to bind; also recorded: bind specifically |
